Consider five compounds from US20020119917A1, “ANTI-INFLAMMATORY PEPTIDES DERIVED FROM C-REACTIVE PROTEIN” (priority 1996, published 2002).

For series [1], the target named is T1, hLE (Homo sapiens, UniProt P08246).
T1 construct: Neutrophils (1.4 billion) were isolated from whole blood obtained from a single healthy laboratory donor; from tissue; host or cells: neutrophils from whole blood of a single healthy donor
T1 sequence (P08246 30-247 limits assumed): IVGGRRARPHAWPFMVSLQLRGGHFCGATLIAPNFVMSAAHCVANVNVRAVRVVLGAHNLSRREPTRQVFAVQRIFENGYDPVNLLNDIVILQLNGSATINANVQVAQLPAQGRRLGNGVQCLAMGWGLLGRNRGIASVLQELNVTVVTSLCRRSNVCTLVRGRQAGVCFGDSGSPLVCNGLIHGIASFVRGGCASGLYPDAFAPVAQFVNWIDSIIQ
The series can be described thus: Degradation profiles of peptides by RP-HPLC after incubation with hLE. As to conditions: incubated with hLE in PBS, 37° C., time-scale hours. The series is classed as in vitro ADME. How it is done:
Several active peptide inhibitors were dissolved in calcium- and magnesium-free phosphate-buffered saline (PBS), 125 μg/250 μL, mixed with 0.25 aliquots of hLE or hCG in 250 μL PBS and incubated at 37° C. Periodically (1,3,8, and 24 hour), 100 μL samples were removed from the reaction vessel. The samples were diluted with 150 μL of 0.1% TFA, frozen with liquid nitrogen, and stored at −20° C. prior to HPLC analysis.
More insight into the mechanism of inhibition is provided by HPLC time-course elution profiles of peptide 1, incubated with hLE in PBS (FIG. 2). […] The other bonds in peptide 1 are cleaved only after several days of incubation with the enzyme.

Series [2] deals with T2, human leukocyte elastase (hLE) (Homo sapiens, UniProt P08246).
T2 construct: Neutrophils (1.4 billion) were isolated from whole blood obtained from a single healthy laboratory donor; from tissue; host or cells: neutrophils from whole blood of a single healthy donor
T2 sequence (P08246 30-247 limits assumed): T1 sequence (P08246 30-247 limits assumed)
Description: In-vitro inhibition of hLE (cleavage of MeOSuc-AAPV-NA). In kind it is biochemical. How it is done: (§1) The enzymatic activity was assayed with MeOSuc-AAPV-NA for hLE determination and Suc-AAPF-NA for hCG determination (both in 100 mM Hepes buffer, pH 7.4, containing 0.05% of the […] detergent Brij-35). The activities of the individual enzymatic fractions were 100% free from cross-contamination. […] The fractions containing hLE and hCG were dialyzed each against 0.1% pyridinium acetate, pH 5.3, divided into 20 aliquots, lyophilized, and stored at −20° C. until use.
Peptides were dissolved in 100 mM Hepes buffer pH 7.4 containing 0.1% Brij-35 with 10% DMSO to yield 600 μM solutions, which were used to make further dilutions with the same buffer, and 80 μL aliquots were added in duplicates to 96-well plates. The substrate, 600 or 900 μM MeOSuc-AAPV-NA in the same buffer with 5% DMSO, was added to each well in addition to the blank wells, and the plate was placed in the plate reader equilibrated to 37° C. (Dynateck MR-6000). Lyophilized aliquots of hLE were dissolved in 1600 μL of 100 mM Hepes buffer without DMSO, and 80 μL of the enzyme solution was added to the peptides and substrate to initiate the reaction. […] The final volume was 240 μL containing: 5% DMSO, 1-200 μM of peptide, 200 μM substrate, and 0.75 μg (about 25 picomol) enzyme.
For hLE, V is determined by fitting a linear equation to the first 6 time-points (10 min) of the kinetics data using the least squares method. […] From calculating the error in the slope of the equation, the relative error for Ki was deduced:
Ki={slope*(1+[S]/Km)}^−1 because Ki=[I]*{(1+[S]/Km)*(Vo/Vi−1)}^−1.
The hLE inhibitory capability of CRP-derived peptides was evaluated by inhibiting the enzymatic cleavage of MeOSuc-AAPV-NA as described in Materials and Methods (section v).

In series [3] the target is T3, hLE (Homo sapiens, UniProt P08246).
T3 sequence (P08246 30-267): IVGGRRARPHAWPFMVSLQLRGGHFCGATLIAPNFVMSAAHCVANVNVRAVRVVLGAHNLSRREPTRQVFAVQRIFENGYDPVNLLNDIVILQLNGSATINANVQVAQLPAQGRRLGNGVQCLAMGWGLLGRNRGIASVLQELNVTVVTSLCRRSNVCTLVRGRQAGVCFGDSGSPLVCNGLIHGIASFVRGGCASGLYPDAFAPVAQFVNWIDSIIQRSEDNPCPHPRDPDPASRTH
The settings on record: CRP as a whole protein; cited from earlier work.

Series [4] addresses specific receptors on monocytes. As to conditions: in vitro; cited from earlier work.
Series [5] has as its system specific receptors on human neutrophils. The settings on record: in vitro; cited from earlier work.
Series [6] addresses T4, human leukocyte cathepsin G (hCG) (Homo sapiens, UniProt P08311).
T4 construct: Neutrophils (1.4 billion) were isolated from whole blood obtained from a single healthy laboratory donor; from tissue; host or cells: neutrophils from whole blood of a single healthy donor
T4 sequence (P08311 21-244 limits assumed): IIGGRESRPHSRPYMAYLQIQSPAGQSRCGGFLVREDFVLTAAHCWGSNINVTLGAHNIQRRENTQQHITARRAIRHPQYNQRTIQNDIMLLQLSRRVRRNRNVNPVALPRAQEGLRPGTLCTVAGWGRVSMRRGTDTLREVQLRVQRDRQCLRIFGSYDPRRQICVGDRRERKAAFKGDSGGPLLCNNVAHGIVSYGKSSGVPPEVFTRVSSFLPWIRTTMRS
Description: In-vitro inhibition of hCG (conversion of Suc-AAPF-NA). In kind it is biochemical. The method, then: as §1
Similar conditions to hLE inhibition experiments ere used except the substrate: 80 μL of 1.8 mM Suc-AAPF-NA. The enzyme was issolved in 800 μL buffer, and the reaction was monitored every 6 min for 1 hour. The final volume was 240 μL containing: 5% DMSO, 1-500 μM peptide, 600 μM substrate, and 1.2 μg enzyme (about 40 picomol).
For hCG, V is determined by fitting a quadratic equation to the total kinetic data (60 min), using the least squares method and calculating V at t=0.
The inhibitory capability of several CRP-derived peptides was evaluated by inhibiting the enzymatic conversion of Suc-AAPF-NA (as described in Materials and Methods (vi) above).

Non-standard residues stand in square brackets, D forms with d. Residues, ends and D or L forms follow the SMILES beside them.

Take `CC[C@H](C)[C@H](NC(=O)[C@@H](Cc1c[nH]cn1)NC(=O)[C@@H](NC(=O)[C@@H]1CCCN1C(=O)[C@H](C)NC(=O)[C@@H](NC(=O)[C@@H](NC(=O)[C@@H](N)C(C)C)[C@@H](C)O)C(C)C)C(C)C)C(=O)O` [Peptide 6, Val89-Thr-Val-Ala-Pro-Val-(D)His-Ile96] (H-VTVAPV[dH]I-OH; N-terminus and C-terminus assumed): on hLE [1], the “cleavage by hLE (HPLC time-course elution profile)” value (from here on “cleavage by hLE”) is “No observable cleavage products”. Also, the inhibition constant Ki (usually a dissociation constant, usually derived from enzyme kinetics or from competition with a known ligand) in series [2] amounted to 450 ± 45 µM.
On the same counts, the results for `CC[C@H](C)[C@H](NC(=O)[C@H](Cc1c[nH]cn1)NC(=O)[C@H](NC(=O)[C@@H]1CCCN1C(=O)[C@H](C)NC(=O)[C@@H](NC(=O)[C@@H](NC(=O)[C@@H](N)C(C)C)[C@@H](C)O)C(C)C)C(C)C)C(=O)O` [Peptide 7, Val89-Thr-Val-Ala-Pro-(D)Val-His-Ile9] (H-VTVAP[dV]HI-OH; N-terminus and C-terminus assumed) are “No observable cleavage products” and 330 ± 130 µM.
For the compound `CC[C@H](C)[C@H](NC(=O)[C@@H](Cc1c[nH]cn1)NC(=O)[C@H](NC(=O)[C@@H]1CCCN1C(=O)[C@H](C)NC(=O)[C@@H](NC(=O)[C@@H](NC(=O)[C@@H](N)C(C)C)[C@@H](C)O)C(C)C)C(C)C)C(=O)O` [Peptide 8, Val89-Thr-Val-Ala-Pro-(D)Val-(D)His-Ile96] (H-VTVAP[dV][dH]I-OH; N-terminus and C-terminus assumed), the “cleavage by hLE” value on hLE [1] is reported as “No observable cleavage products”. Moreover, in series [2], the affinity corresponds to a Ki of 490 ± 50 µM.
Consider “CRP: plasma protein, major acute phase reactant; five identical sub-units of 206 amino acids forming a cyclic pentamer”, for which, in the series with hLE [3], the “inhibitory effect on hLE” value is “no inhibitory effect”. For the same compound, the Kd (as a rule, the equilibrium constant for the complex coming apart) in series [4] was roughly 0.1 µM; in series [5], roughly 0.05 µM.
For the compound “H-VTVAPVHI-OH [Peptide 1, Val89-Thr-Val-Ala-Pro-Val-His-Ile96]”, in series [6], the inhibition constant Ki worked out at 1400 ± 200 µM and the “hCG inhibitory capability (in words)” value is reported as “slightly inhibitory”. Also, on hLE [1], the “cleavage by hLE” value is “cleaved as predicted exclusively at the Val-His bond”. Besides, the Ki in series [2] was 120 ± 15 µM.
